Experimental data from paper PMC12177781, “Chalcogen Derivatives for the Treatment of African Trypanosomiasis: Biological Evaluation of Thio- and Seleno-Semicarbazones and Their Azole Derivatives” (ACS Omega, 2025).
Like-named read-outs stand apart in the source and are kept apart here.

Key:
[1] = DPPH radical scavenging (antioxidant) assay; settings: after 2 h, mean ± SEM
[2] = tested on: T. brucei brucei Lister 427; experiment: T. b. brucei Lister 427 bloodstream-form growth inhibition, SYBR Green viability assay, 72 h; format: cell-based, Trypanosoma brucei brucei
HEK293 cells = experiment: HEK293 cytotoxicity, CellTiter-Glo, 48 h; settings: for inhibition at 10 µM: Homo sapiens, HEK293, read-out: HEK293 inhibition (%); for HEK293 inhibition (%): growth inhibition at 10 µM, ± SD
HepG2 cells = experiment: HepG2 cytotoxicity, CellTiter-Glo, 48 h; settings: for inhibition at 10 µM: Homo sapiens, HepG2, read-out: HepG2 inhibition (%); for HepG2 inhibition (%): growth inhibition at 10 µM, ± SD
[3] = target: T. brucei cathepsin L-like protease (TbrCATL) (Trypanosoma brucei rhodesiense, UniProt Q95PM0); experiment: TbrCATL inhibition assay, Z-FR-AMC substrate; format: biochemical; settings: for SI TbrCATL: IC50 hCatL/IC50 TbrCATL; for IC50: mean ± SD, two experiments in triplicate (n = 6), read-out: IC50 TbrCATL
Method: (§1) All experiments were performed in a 384-well black microplate, using a Synergy HTX (Biotek) plate reader at 25 °C with absorption/emission wavelengths of 360/460 nm. Assays were performed in triplicate wells and DMSO was used as a vehicle control. Enzyme activity was measured and normalized to DMSO controls, and the inhibitor E-64 (10 μM) was used as a positive control for all assays. Experiments were performed in triplicate, with at least two independent assays (n = 6 data points). IC50 values were determined through nonlinear regression. The data obtained were analyzed using GraphPad Prism 9.0 (GraphPad Software, La Jolla, California, US).
The screening assay was performed using 0.5 nM of TbrCATL diluted in 0.1 M sodium acetate, 1 mM dithiothreitol (DTT), and 0.01% Triton X-100, pH 5.5. TbrCATL was expressed and purified as described. Enzyme the compound (10 μM), were incubated for 10 min at room temperature. Then the substrate, Z-Phe-Arg-amidomethylcoumarin (Z-FR-AMC; Sigma-Aldrich, C9521), was added (30 μL diluted in the same assay buffer) to yield a final concentration of 2.5 μM and the assay allowed to proceed for 10 min. […] For those compounds inhibiting enzyme activity by >85%, DR assays were performed over 15 2-fold serial dilutions starting at 0.5 or 20 μM.

[4] = target: T1, human cathepsin L (hCatL) (Homo sapiens, UniProt P07711); experiment: hCatL inhibition assay, Z-FR-AMC substrate; format: biochemical; settings: mean ± SD, two experiments in triplicate (n = 6)
T1 construct: purchased R&D Systems 952-CY
Method: as §1
Recombinant hCatL was purchased from R&D Systems (952-CY) and activated according to the manufacturers protocol. This enzyme, hCatL, is used to test compounds’ selectivity because it is the human homologue of TbrCATL. The assay was modified from, using 25 pM of the enzyme diluted in 40 mM sodium acetate, 5 mM DTT, 100 mM NaCl, 1 mM EDTA and 0.01% Triton X-100, pH 5.5. Enzyme and compound (10 μM), were incubated for 30 min at room temperature. Then Z-FR-AMC was added (30 μL diluted in the same assay buffer) to yield a final concentration of 25 μM and the assay allowed to proceed for 10 min. DR assays were performed over 15 2-fold serial dilutions starting at 0.5 or 20 μM.

in vitro [5] = settings: human, CC50 HEK293 (μM)
in vitro [6] = settings: human, CC50 HepG2 (μM)
[7] = Trypanosoma brucei, growth inhibition at 10 µM, ± SD
[8] = at 10 μM, read-out: TbrCATL inhibition (%)
[9] = growth inhibition at 10 µM, ± SD
[10] = read-out: TbrCATL inhibition (%), at 10 μM
[11] = growth inhibition at 10 µM, ± SD, 10 µM

T. brucei cathepsin L-like protease (TbrCATL), sequence (Q95PM0 1-450): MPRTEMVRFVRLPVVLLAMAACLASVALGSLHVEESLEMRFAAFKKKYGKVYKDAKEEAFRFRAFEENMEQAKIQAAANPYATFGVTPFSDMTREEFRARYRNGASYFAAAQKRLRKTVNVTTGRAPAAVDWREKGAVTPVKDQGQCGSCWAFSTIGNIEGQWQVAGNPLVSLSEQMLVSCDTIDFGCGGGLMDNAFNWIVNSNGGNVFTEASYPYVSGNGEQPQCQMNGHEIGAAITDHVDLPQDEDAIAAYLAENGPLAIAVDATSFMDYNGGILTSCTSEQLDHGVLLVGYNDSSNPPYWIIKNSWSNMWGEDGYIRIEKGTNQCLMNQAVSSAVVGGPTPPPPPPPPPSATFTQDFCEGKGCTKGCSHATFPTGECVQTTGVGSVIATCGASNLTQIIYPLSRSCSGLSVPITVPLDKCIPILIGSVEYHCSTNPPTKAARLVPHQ
T1 sequence (P07711 114-333): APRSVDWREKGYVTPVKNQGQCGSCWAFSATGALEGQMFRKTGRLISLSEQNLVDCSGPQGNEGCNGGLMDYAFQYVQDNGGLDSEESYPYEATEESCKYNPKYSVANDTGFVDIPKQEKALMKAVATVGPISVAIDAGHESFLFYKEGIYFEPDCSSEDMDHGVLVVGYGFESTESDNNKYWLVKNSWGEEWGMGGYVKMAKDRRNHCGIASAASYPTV

| Structure (SMILES) | % inhibited DPPH ([1]; 0.015 mg/ml) | % inhibited DPPH ([1]; 0.03 mg/ml) | % inhibited DPPH ([1]; 0.06 mg/ml) | inhibition at 10 µM (HEK293 cells) | inhibition at 10 µM [2, 7] | inhibition at 10 µM (HepG2 cells) | further results |
| --- | --- | --- | --- | --- | --- | --- | --- |
| O=C1O[C@H]([C@@H](O)CO)C(O)=C1O [ASC, ascorbic acid, reference compound] | 76.00 ± 3.52% | 80.33 ± 0.33% | 80.33 ± 0.67% |  |  |  |  |
| N=C(N)c1ccc(OCCCCCOc2ccc(C(=N)N)cc2)cc1 [Pentamidine, reference compound] |  |  |  |  |  |  | inhibition at 10 µM ([2]; Trypanosoma brucei): 100 ± 2%; EC50 ([2]; Trypanosoma brucei, read-out: EC50 T. brucei (μM)): 0.014 ± 0.002 µM |
| C/C(=N\Nc1nc(C)cs1)c1ccc(C)cc1 [SC1] | 55.00 ± 1.53% | 54.33 ± 1.86% | 60.00 ± 4.16% | 24 ± 7% | 30 ± 6% | 4 ± 15% | inhibition at 10 µM [3, 8]: 32.9% |
| COc1ccc(C(C)=NNc2nc(C)cs2)cc1.Cl [SC2] |  |  |  |  |  |  | HEK293 inhibition (%) (HEK293 cells): 33 ± 8%; T. brucei inhibition (%) [2, 9]: 27 ± 5%; HepG2 inhibition (%) (HepG2 cells): 6 ± 3% |
| C/C(=N\Nc1nc(C)cs1)c1ccc(Br)cc1 [SC3] | 68.00 ± 3.06% | 69.33 ± 2.33% | 67.00 ± 2.31% | 64 ± 2% | 38 ± 9% | 46 ± 7% | inhibition at 10 µM [3, 8]: 54% |
| C/C(=N\Nc1nc(C)cs1)c1cccc([N+](=O)[O-])c1 [SC5] | 66.33 ± 1.86% | 68.67 ± 2.03% | 66.67 ± 1.86% | 30 ± 3% | 40 ± 8% | 17 ± 2% | IC50 [4]: 4.07 ± 0.383 µM; SI TbrCATL [3]: 49; TbrCATL inhibition (%) ([3]; at 10 μM): 87.70%; IC50 [3]: 0.0826 ± 0.00405 µM; inhibition at 10 µM [3, 10]: > 85% |
| C/C(=N\Nc1nc(C)cs1)C12CC3CC(CC(C3)C1)C2.Cl [SC11] |  |  |  |  |  |  | HEK293 inhibition (%) (HEK293 cells): 39 ± 3%; T. brucei inhibition (%) [2, 9]: 19 ± 8%; HepG2 inhibition (%) (HepG2 cells): 0 ± 13% |
| C/C(=N\NC(N)=S)c1ccc(C)cc1 [SO1] |  |  | 45.00 ± 8.33% | 30 ± 3% | 44 ± 7% | 50 ± 4% | inhibition at 10 µM [3, 8]: 80% |
| C/C(=N\NC(N)=S)c1ccc(Br)cc1 [SO3] |  |  | 29.33 ± 24.77% | 76 ± 2% | 28 ± 4% | 65 ± 4% | IC50 [4]: 0.136 ± 0.0199 µM; SI TbrCATL [3]: 19; TbrCATL inhibition (%) ([3]; at 10 μM): 95.54%; IC50 [3]: 0.00733 ± 0.00027 µM; inhibition at 10 µM [3, 10]: > 85% |
| C/C(=N\NC(N)=S)c1cccc([N+](=O)[O-])c1 [SO5] |  |  | 23.33 ± 19.46% | 14 ± 9% | 31 ± 5% | 39 ± 9% | IC50 [4]: 0.0207 ± 0.00436 µM; SI TbrCATL [3]: 4; TbrCATL inhibition (%) ([3]; at 10 μM): 100.00%; IC50 [3]: 0.00583 ± 0.00035 µM; inhibition at 10 µM [3, 10]: > 85% |
| C/C(=N\Nc1nc(C)c[se]1)c1ccc(C)cc1 [SeC1] | 71.67 ± 2.85% | 71.67 ± 2.40% | 72.33 ± 2.33% | 77 ± 2% | 72 ± 6% | 65 ± 9% | CC50 (in vitro [5]): 12 ± 4.94 µM; EC50 ([2]; Trypanosoma brucei, three independent experiments in duplicate (n = 6) ± SD, read-out: EC50 T. brucei): 9.8 ± 0.63 µM; T. brucei inhibition (%) [2, 11]: > 70%; TbrCATL inhibition (%) ([3]; at 10 μM): 51.07%; TbrCATL inhibition (%) ([3]; at 10 μM, listed as Se C1, 10 µM): ≤ 85%; CC50 (in vitro [6]): 11 ± 0.88 µM |
| C/C(=N\Nc1nc(C)c[se]1)C12CC3CC(CC(C3)C1)C2 [SeC11] |  |  |  |  |  |  | HEK293 inhibition (%) (HEK293 cells): 64 ± 10%; T. brucei inhibition (%) [2, 9]: 37 ± 0%; HepG2 inhibition (%) (HepG2 cells): 66 ± 2% |
| C/C(=N\NC(N)=[Se])C12CC3CC(CC(C3)C1)C2 [SeO11] |  |  |  |  |  |  | HEK293 inhibition (%) (HEK293 cells): 100 ± 4%; CC50 (HEK293 cells; read-out: CC50 HEK293, three independent experiments in duplicate): 10.5 ± 0.36 µM; T. brucei inhibition (%) [2, 11]: 100 ± 1%; T. brucei inhibition (%) ([2]; growth inhibition at 10 µM, ± SD, listed as Se O11, 10 µM): > 70%; EC50 ([2]; three independent experiments in duplicate (n = 6) ± SD, read-out: EC50 T. brucei): 5.16 ± 1.06 µM; HepG2 inhibition (%) (HepG2 cells): 66 ± 5%; CC50 (HepG2 cells; read-out: CC50 HepG2, three independent experiments in duplicate): 6.01 ± 0.69 µM |
| Cc1c(C)c2c(c(C)c1O)CCC(C)(C(=O)O)O2 (stereo not drawn) [TRO, Trolox, reference compound] | 79.33 ± 1.33% | 79.33 ± 0.882% | 79.67 ± 0.67% |  |  |  |  |
